# Data published in US20100247579A1, “THERAPEUTIC AGENT FOR CANCER” (priority 2007, published 2010).
# Counter-ions that a name gives are not always drawn. Like-named read-outs stand apart in the source and are kept apart here.
# Key:
# [1] = system: lymphocytes derived from cancer patient No. PT009 expanded with OKT3 and CH-296; test: Resistance to anticancer agents, WST-1 GI50 on cultured lymphocytes of cancer patient No. PT009; assay type: cell-based, human; conditions: day 10 of culture with OKT3 and CH-296, 20 hours with drug
# Procedure: After that, the suspension was stained by the trypan blue staining method to calculate the viable cell count, and then subjected to each experiment.
# (§1) On the other hand, the IL-2/5HRPMI was added to the control group in 50 μL/well each.
# (§2) These culture plates were incubated at 37° C. for 20 hours in the presence of 5% CO2. After the incubation, WST-1 (Premix WST-1 Cell Proliferation Assay System, manufactured by Takara Bio Inc.) was added in 20 μL/well each to each well of the plate, and incubated in the presence of 5% CO2 at 37° C. for 4 hours. The plates after the incubation were centrifuged at 500×g at room temperature for 5 minutes. After the centrifugation, 100 μL of the supernatant was collected from each well, and the absorbance was measured at an absorption wavelength of 450 nm and a control wavelength of 630 nm [hereinafter referred to as the absorbance (450 nm-630 nm)] using a microplate reader (manufactured by Bio-Rad Laboratories, Inc., Model Number 680XR), and then the specific absorbance (450 nm-630 nm) was calculated according to the following formula.
# (§3) Specific absorbance (450 nm-630 nm)=Absorbance of Test Cell Addition Group (450 nm-630 nm)−Absorbance of Control Group (450 nm-630 nm) Formula 2: […]
# [2] = system: expanded lymphocytes derived from a human healthy donor; test: Resistance to anticancer agents, WST-1 GI50 on cultured lymphocytes of a human healthy donor; assay type: cell-based; conditions: for GI50: Homo sapiens, Lymphocyte
# Procedure: as §1, §2, §3
# Here, a group where only OKT3 was immobilized to the culture equipment in the expansion of the lymphocytes was also set.
# However, in the case of paclitaxel, a human AB type serum was used as a solvent for dilution, and for other drugs, 5HRPMI was used for dilution.
# [3] = Homo sapiens, Lymphocyte, read-out: GI50
# [4] = healthy donor lymphocytes expanded with OKT3 + CH-296, read-out: GI50 (μg/mL) Initial Stimulation OKT3 + CH-296
# [5] = healthy donor lymphocytes expanded with OKT3 alone, read-out: GI50 (μg/mL) Initial Stimulation OKT3
Compound,"GI50 [1, 3] [mg/L]",GI50 [1] [mg/L],GI50 (μg/mL) Initial Stimulation OKT3 + CH-296 ([2]; healthy donor lymphocytes expanded with OKT3 + CH-296) [µg/mL],GI50 (μg/mL) Initial Stimulation OKT3 ([2]; healthy donor lymphocytes expanded with OKT3 alone) [µg/mL],"GI50 [2, 4] [µg/mL]","GI50 [2, 5] [µg/mL]"
"N.N.O=C([O-])C1(C(=O)[O-])CCC1.[Pt+2] [Carboplatin, carboplatin]",,215.5,161.31,116.16,,
"N.N.[Cl][Pt][Cl] [Cisplatin, cisplatin]",,3.7,,,,
"O=c1[nH]cc(F)c(=O)[nH]1 [Fluorouracil, fluorouracil]",639,,,,3270,2290
"CC(=O)O[C@H]1C(=O)[C@@]2(C)[C@H]([C@H](OC(=O)c3ccccc3)[C@]3(O)C[C@H](OC(=O)[C@H](O)[C@@H](NC(=O)c4ccccc4)c4ccccc4)C(C)=C1C3(C)C)[C@]1(OC(C)=O)CO[C@@H]1C[C@@H]2O [Paclitaxel, paclitaxel]",,,,,39.7,34.1

# The next lines start with results.
"GI50 [1, 3] [mg/L]",Compound,GI50 [1] [mg/L],GI50 (μg/mL) Initial Stimulation OKT3 + CH-296 ([2]; healthy donor lymphocytes expanded with OKT3 + CH-296) [µg/mL],GI50 (μg/mL) Initial Stimulation OKT3 ([2]; healthy donor lymphocytes expanded with OKT3 alone) [µg/mL],"GI50 [2, 4] [µg/mL]","GI50 [2, 5] [µg/mL]"
0.5,"COc1cccc2c1C(=O)c1c(O)c3c(c(O)c1C2=O)C[C@@](O)(C(=O)CO)C[C@@H]3O[C@H]1C[C@H](N)[C@H](O)[C@H](C)O1 [Doxorubicin Hydrochloride, doxorubicin hydrochloride]",,,,0.41,0.25
0.2,"CC[C@]1(O)C[C@H]2CN(CCc3c([nH]c4ccccc34)[C@@](C(=O)OC)(c3cc4c(cc3OC)N(C=O)[C@H]3[C@@](O)(C(=O)OC)[C@H](OC(C)=O)[C@]5(CC)C=CCN6CC[C@]43[C@@H]65)C2)C1 [Vincristine Sulfate, vincristine sulfate]",,,,24.3,4.42
